In EPA's ToxRefDB 2:

Assays:
rat [1] = details: Prenatal developmental toxicity study, sprague dawley, Oral, Gavage/Intubation, dose end: 5 GD, group: developmental
mouse [2] = details: Carcinogenicity, cd1, Oral, Feed, dose end: 80 week, group: systemic
rat [3] = details: Prenatal developmental toxicity study; wistar; Oral; Feed; dose end: 15 GD; group: maternal; systemic / in life observation / body weight / body weight gain + systemic / in life observation / food consumption / food consumption
mouse [4] = details: Subchronic oral toxicity in rodents, b6c3f1, Feed, dose end: 13 week, group: systemic
rat [5] = details: Prenatal developmental toxicity study, sprague dawley, Oral, Gavage/Intubation, dose end: 15 GD
mouse [6] = details: Combined chronic toxicity/carcinogenicity; b6c3f1; Oral; Feed; dose end: 2 year; group: systemic; systemic / in life observation / body weight / body weight
dog [7] = details: Chronic toxicity, beagle, Oral, [Not Specified], dose end: 52 week, group: systemic
rat [8] = details: Subchronic oral toxicity in rodents, fischer, Feed, dose end: 13 week, group: systemic
rat [9] = details: Prenatal developmental toxicity study, sprague dawley, Oral, Gavage/Intubation, dose end: 15 GD; remark: listed apart in the source
rat [10] = details: Subchronic oral toxicity in rodents, sprague dawley, Feed, dose end: 13 week, group: systemic, systemic / in life observation / body weight / body weight + systemic / in life observation / body weight / body weight gain + systemic / in…
rat [11] = details: Combined chronic toxicity/carcinogenicity, fischer, Oral, Feed, dose end: 2 year, group: systemic
rat [12] = details: Combined chronic toxicity/carcinogenicity; sprague dawley; Oral; Feed; dose end: 104 week; group: systemic; systemic / pathology microscopic / adrenal gland / hypertrophy + systemic / pathology microscopic / skeletal muscle / malformation + …
rat [13] = details: Combined chronic toxicity/carcinogenicity; fischer; Oral; Feed; dose end: 104 week; group: systemic; systemic / organ weight / skeletal muscle / absolute + systemic / organ weight / skeletal muscle / relative to body weight + systemic / …
rat [14] = details: Multigenerational reproductive toxicity study, sprague dawley, Oral, Feed, dose end: 2 generation
rat [15] = details: Subchronic dermal toxicity, fischer, Topical, dose end: 13 week, group: systemic
rat [16] = details: Combined chronic toxicity/carcinogenicity, wistar, Oral, Feed, dose end: 24 month, group: systemic
dog [17] = details: Subchronic oral toxicity in nonrodent, beagle, Feed, dose end: 90 day, group: systemic
dog [18] = details: Chronic toxicity; beagle; Oral; Feed; dose end: 52 week; group: systemic; systemic / hematology / erythrocyte (rbc) count differential / erythrocyte (rbc) + systemic / hematology / heinz body / heinz body + …
rat [19] = details: Multigenerational reproductive toxicity study, sprague dawley, Oral, Feed, dose end: 2 generation; remark: listed apart in the source
mouse [20] = details: Subchronic oral toxicity in rodents, b6c3f1, Feed, dose end: 14 week, group: systemic, systemic / clinical chemistry / bilirubin / total bilirubin + systemic / clinical chemistry / cholesterol / cholesterol + systemic / …
rabbit = details: Prenatal developmental toxicity study, other, Oral, Gavage/Intubation, dose end: 18 GD
rat [21] = details: Subchronic oral toxicity in rodents, wistar, Feed, dose end: 90 day, group: systemic
mouse [22] = details: Carcinogenicity; b6c3f1; Oral; Feed; dose end: 2 year; group: systemic; systemic / organ weight / kidney / nos + systemic / pathology microscopic / kidney / vacuolization + systemic / organ weight / kidney / …
[23] = developmental / developmental malformation / bone / ossification sites + developmental / developmental malformation / general / [other] + …
[24] = systemic / in life observation / body weight / body weight + systemic / pathology microscopic / liver / hypertrophy
[25] = systemic / in life observation / body weight / body weight gain + systemic / organ weight / brain / absolute + systemic / pathology …
[26] = systemic / in life observation / body weight / body weight gain
[27] = systemic / in life observation / body weight / body weight gain + systemic / in life observation / mortality / mortality + systemic / in …
[28] = group: developmental, developmental / developmental malformation / bone / ossification sites + developmental / developmental malformation / general / [other] + …
[29] = group: maternal, systemic / in life observation / body weight / body weight gain
[30] = group: maternal, systemic / in life observation / body weight / body weight gain + reproductive / reproductive performance / postimplantation loss / …
[31] = systemic / clinical chemistry / alanine aminotransferase (alt/sgpt) / alanine aminotransferase (alt/sgpt) + systemic / clinical chemistry / …
[32] = systemic / organ weight / ovary / absolute + systemic / organ weight / uterus / absolute
[33] = group: developmental, developmental / developmental malformation / diaphragm / diaphragmatic thinning
[34] = group: developmental, developmental / developmental malformation / diaphragm / diaphragmatic thinning + systemic / in life observation / body weight / fetal …
[35] = group: maternal, systemic / in life observation / body weight / body weight + systemic / in life observation / clinical signs / salivation + systemic / in …
[36] = systemic / pathology microscopic / eye / retinopathy
[37] = systemic / pathology microscopic / thyroid gland / adenoma/carcinoma combined + systemic / pathology microscopic / thyroid gland / carcinoma…
[38] = group: offspring, systemic / in life observation / body weight / offspring (pup) weight
[39] = group: parental, systemic / in life observation / body weight / body weight + systemic / in life observation / body weight / body weight gain + systemic / in…
[40] = systemic / pathology microscopic / skin / inflammation
[41] = systemic / pathology microscopic / skin / inflammation + systemic / in life observation / clinical signs / desquamation + systemic / in life…
[42] = systemic / clinical chemistry / lactic acid dehydrogenase (ldh) / lactic acid dehydrogenase (ldh)
[43] = systemic / hematology / heinz body / heinz body
[44] = systemic / hematology / heinz body / heinz body + systemic / clinical chemistry / alkaline phosphatase (alp/alk) / alkaline phosphatase (alp…
[45] = group: offspring, systemic / in life observation / body weight / offspring (pup) weight + developmental / offspring survival late / [other] / [other]
[46] = group: parental, systemic / clinical chemistry / alkaline phosphatase (alp/alk) / alkaline phosphatase (alp/alk) + systemic / clinical chemistry / creatinine…
[47] = group: developmental, developmental / developmental malformation / bone / unossified + systemic / in life observation / body weight / fetal weight
[48] = group: maternal, systemic / in life observation / body weight / body weight gain + systemic / in life observation / clinical signs / scybala + systemic / in …
[49] = systemic / clinical chemistry / alanine aminotransferase (alt/sgpt) / alanine aminotransferase (alt/sgpt) + systemic / in life observation…
[50] = systemic / organ weight / liver / absolute + systemic / organ weight / liver / relative to body weight

In the case of CN(C)C(=S)[S-].CN(C)C(=S)[S-].[Zn+2] [Ziram], the LOAEL (rat [1]; [23]) is reported as over 100 mg/kg/day, the NEL (rat [1]; [23]) is reported as 25 mg/kg/day and the NOAEL (rat [1]; [23]) is reported as at least 100 mg/kg/day. For the same compound, the LEL (rat [1]; systemic / in life observation / body weight / fetal weight) was 50 mg/kg/day, the LEL (mouse [2]; [24]) was 3 mg/kg/day and the NEL (mouse [2]; [24]) was under 3 mg/kg/day. The LOAEL (mouse [2]; [25]) was 27 mg/kg/day, the NOAEL (mouse [2]; [25]) was 9 mg/kg/day and the LEL (rat [3]) was 12.5 mg/kg/day. The LOAEL (rat [3]) was over 25 mg/kg/day, the NEL (rat [3]) was 6.25 mg/kg/day and the NOAEL (rat [3]) was at least 25 mg/kg/day. It also gave an LEL (mouse [4]; [26]) of 80 mg/kg/day, an NEL (mouse [4]; [26]) of under 80 mg/kg/day and an LOAEL (mouse [4]; [27]) of over 1590 mg/kg/day. It also gave an NOAEL (mouse [4]; [27]) of at least 1590 mg/kg/day, an LOAEL (rat [5]; [28]) of over 100 mg/kg/day and an NEL (rat [5]; [28]) of 12.5 mg/kg/day. For the same compound, the NOAEL (rat [5]; [28]) was at least 100 mg/kg/day, the LEL (rat [5]; group: developmental, systemic / in life observation / body weight / fetal weight) was 25 mg/kg/day and the LEL (rat [5]; [29]) was 12.5 mg/kg/day. The NEL (rat [5]; [29]) was under 12.5 mg/kg/day, the LOAEL (rat [5]; [30]) was over 100 mg/kg/day and the NOAEL (rat [5]; [30]) was at least 100 mg/kg/day. The LEL (mouse [6]) was 122 mg/kg/day, the LOAEL (mouse [6]) was 122 mg/kg/day and the NEL (mouse [6]) was under 122 mg/kg/day. The NOAEL (mouse [6]) was under 122 mg/kg/day, the LOAEL (dog [7]; [31]) was 6.6 mg/kg/day and the NOAEL (dog [7]; [31]) was 1.6 mg/kg/day. It also gave an LEL (dog [7]; [32]) of 1.9 mg/kg/day, an NEL (dog [7]; [32]) of under 1.9 mg/kg/day and an LEL (rat [8]; [26]) of 31.3 mg/kg/day. It also gave an LOAEL (rat [8]; [27]) of over 313 mg/kg/day, an NEL (rat [8]; [27]) of 16.3 mg/kg/day and an NOAEL (rat [8]; [27]) of at least 313 mg/kg/day. For the same compound, the LEL (rat [9]; [33]) was 16 mg/kg/day, the LOAEL (rat [9]; [33]) was 16 mg/kg/day and the NEL (rat [9]; [34]) was 4 mg/kg/day. For the same compound, the NOAEL (rat [9]; [34]) was 4 mg/kg/day, the LEL (rat [9]; [35]) was 16 mg/kg/day and the LOAEL (rat [9]; [35]) was 16 mg/kg/day. The NEL (rat [9]; [35]) was 4 mg/kg/day, the NOAEL (rat [9]; [35]) was 4 mg/kg/day and the LEL (rat [10]) was 21.4 mg/kg/day. For the same compound, the LOAEL (rat [10]) was 21.4 mg/kg/day, the NEL (rat [10]) was 7.4 mg/kg/day and the NOAEL (rat [10]) was 7.4 mg/kg/day. It also gave an LEL (rat [11]; [36]) of 13 mg/kg/day, an NEL (rat [11]; [36]) of under 13 mg/kg/day and an LOAEL (rat [11]; [37]) of over 22 mg/kg/day. The NOAEL (rat [11]; [37]) was at least 22 mg/kg/day, the LEL (rat [12]) was 2.5 mg/kg/day and the LOAEL (rat [12]) was 2.5 mg/kg/day. The NEL (rat [12]) was under 2.5 mg/kg/day, the NOAEL (rat [12]) was under 2.5 mg/kg/day and the LEL (rat [13]) was 6.9 mg/kg/day. For the same compound, the LOAEL (rat [13]) was 6.9 mg/kg/day, the NEL (rat [13]) was 0.7 mg/kg/day and the NOAEL (rat [13]) was 0.7 mg/kg/day. It also gave an LEL (rat [14]; [38]) of 42.7 mg/kg/day, an LOAEL (rat [14]; [38]) of 42.7 mg/kg/day and an NEL (rat [14]; [38]) of 16.7 mg/kg/day. For the same compound, the NOAEL (rat [14]; [38]) was 16.7 mg/kg/day, the LEL (rat [14]; [39]) was 37.5 mg/kg/day and the LOAEL (rat [14]; [39]) was 37.5 mg/kg/day. For the same compound, the NEL (rat [14]; [39]) was 14.8 mg/kg/day and the NOAEL (rat [14]; [39]) was 14.8 mg/kg/day.

CCCCCCCCCCSCCN.Cl [2-(Decylthio)ethanamine hydrochloride] showed an LOAEL (rat [15]; [40]) of 1 mg/kg/day, an NOAEL (rat [15]; [40]) of under 1 mg/kg/day and an LEL (rat [15]; [41]) of 1 mg/kg/day. It also gave an NEL (rat [15]; [41]) of under 1 mg/kg/day.

CC1(C(=O)Nc2ccc(O)c(Cl)c2Cl)CCCCC1 [Fenhexamid] gave an LEL (rat [16]; [42]) of 28 mg/kg/day, an NEL (rat [16]; [42]) of under 28 mg/kg/day and an NOAEL (rat [16]; systemic / clinical chemistry / lactic acid dehydrogenase (ldh) / lactic acid dehydrogenase (ldh) + systemic / pathology microscopic / …) of 28 mg/kg/day. The LOAEL (rat [16]; systemic / pathology microscopic / intestine large / hyperplasia + systemic / pathology microscopic / spleen / hematopoietic cell …) was 292 mg/kg/day, the LEL (dog [17]; [43]) was 239 mg/kg/day and the LOAEL (dog [17]; [43]) was 239 mg/kg/day. For the same compound, the NEL (dog [17]; [44]) was 33.9 mg/kg/day, the NOAEL (dog [17]; [44]) was 33.9 mg/kg/day and the LEL (dog [18]) was 124 mg/kg/day. It also gave an LOAEL (dog [18]) of 124 mg/kg/day, an NEL (dog [18]) of 17.4 mg/kg/day and an NOAEL (dog [18]) of 17.4 mg/kg/day. The LEL (rat [19]; [38]) was 406 mg/kg/day, the LOAEL (rat [19]; [38]) was 406 mg/kg/day and the NEL (rat [19]; [45]) was 38.2 mg/kg/day. It also gave an NOAEL (rat [19]; [45]) of 38.2 mg/kg/day, an LEL (rat [19]; [46]) of 406 mg/kg/day and an LOAEL (rat [19]; [46]) of 406 mg/kg/day. The NEL (rat [19]; [46]) was 38.2 mg/kg/day, the NOAEL (rat [19]; [46]) was 38.2 mg/kg/day and the LEL (mouse [20]) was 3280 mg/kg/day. It also gave an LOAEL (mouse [20]) of 3280 mg/kg/day, an NEL (mouse [20]) of 266 mg/kg/day and an NOAEL (mouse [20]) of 266 mg/kg/day. The LEL (rabbit; [47]) was 1000 mg/kg/day, the LOAEL (rabbit; [47]) was 1000 mg/kg/day and the NEL (rabbit; [47]) was 300 mg/kg/day. For the same compound, the NOAEL (rabbit; [47]) was 300 mg/kg/day, the LEL (rabbit; [48]) was 300 mg/kg/day and the LOAEL (rabbit; [48]) was 300 mg/kg/day. For the same compound, the NEL (rabbit; [48]) was 100 mg/kg/day, the NOAEL (rabbit; [48]) was 100 mg/kg/day and the LOAEL (rat [21]; [49]) was 904 mg/kg/day. It also gave an NOAEL (rat [21]; [49]) of 415 mg/kg/day, an LEL (rat [21]; [50]) of 202 mg/kg/day and an NEL (rat [21]; [50]) of under 202 mg/kg/day. The LEL (mouse [22]) was 807 mg/kg/day, the LOAEL (mouse [22]) was 807 mg/kg/day and the NEL (mouse [22]) was 247 mg/kg/day. It also gave an NOAEL (mouse [22]) of 247 mg/kg/day.
